Measured values reported in ChEMBL document CHEMBL1201862, “PubChem BioAssay data set” (2004).
Calls of active or inactive are those of the source.

Experiments:
[1] = biological target: T1, Heat shock 70 kDa protein 1A (Homo sapiens, UniProt P0DMV8); test: small-molecule inhibition of Hsp70 – biochemical, TR-FRET (AID 786)
Estrogen receptor beta = Estrogen receptor beta (Homo sapiens, UniProt Q92731);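 further: recombinant ER-beta bound to coactivator SRC1 peptide in presence of estradiol agonist; inhibitors block coactivator peptide binding and lower the FRET signal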
Estrogen receptor beta, sequence (Q92731 whole entry): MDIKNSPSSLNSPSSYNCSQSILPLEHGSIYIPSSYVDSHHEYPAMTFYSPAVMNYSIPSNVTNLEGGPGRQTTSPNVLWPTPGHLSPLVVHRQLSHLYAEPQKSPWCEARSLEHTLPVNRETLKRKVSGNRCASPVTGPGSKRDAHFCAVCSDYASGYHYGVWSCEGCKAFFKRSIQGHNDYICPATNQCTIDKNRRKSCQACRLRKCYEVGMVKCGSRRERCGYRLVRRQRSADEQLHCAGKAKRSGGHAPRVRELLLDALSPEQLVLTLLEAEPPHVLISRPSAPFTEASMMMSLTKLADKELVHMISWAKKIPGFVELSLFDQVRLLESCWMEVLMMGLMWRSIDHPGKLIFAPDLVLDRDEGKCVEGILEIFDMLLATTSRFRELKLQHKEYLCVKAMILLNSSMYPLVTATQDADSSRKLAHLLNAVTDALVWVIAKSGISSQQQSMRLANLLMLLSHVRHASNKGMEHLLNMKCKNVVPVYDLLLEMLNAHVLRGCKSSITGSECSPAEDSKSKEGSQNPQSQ

[2] = biological target: T1, Heat shock 70 kDa protein 1A; test: small molecules displacing fluorescent ligand from Hsp70 – biochemical, fluorescence polarization, primary screen (AID 583)
Estrogen receptor = biological target: T2, Estrogen receptor (Homo sapiens, UniProt P03372);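 further: potency for inhibiting coactivator peptide recruitment to the receptor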
T2 sequence (P03372 whole entry): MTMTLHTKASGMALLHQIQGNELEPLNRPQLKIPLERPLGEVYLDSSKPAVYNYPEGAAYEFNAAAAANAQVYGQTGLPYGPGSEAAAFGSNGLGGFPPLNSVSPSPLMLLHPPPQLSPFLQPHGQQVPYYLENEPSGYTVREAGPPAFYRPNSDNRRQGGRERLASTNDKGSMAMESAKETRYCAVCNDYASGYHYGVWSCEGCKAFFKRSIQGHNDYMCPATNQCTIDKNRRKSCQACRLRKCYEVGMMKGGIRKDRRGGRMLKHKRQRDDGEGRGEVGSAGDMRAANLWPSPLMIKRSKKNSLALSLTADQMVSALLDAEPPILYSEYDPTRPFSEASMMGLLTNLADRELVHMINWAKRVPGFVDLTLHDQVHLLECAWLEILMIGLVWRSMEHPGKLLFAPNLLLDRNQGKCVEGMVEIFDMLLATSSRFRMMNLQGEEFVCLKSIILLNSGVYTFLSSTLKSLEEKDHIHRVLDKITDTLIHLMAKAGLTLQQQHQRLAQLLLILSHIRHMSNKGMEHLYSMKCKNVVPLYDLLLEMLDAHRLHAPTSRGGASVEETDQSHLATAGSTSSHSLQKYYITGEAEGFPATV

Bcl-2-like protein 10 = Bcl-2-like protein 10 (Homo sapiens, UniProt Q9HD36); test: Concentration-response of Bcl-B inhibitors by biochemical FP with TR3 (AID 1243); assay type: functional
Bcl-2-like protein 10, sequence (Q9HD36 whole entry): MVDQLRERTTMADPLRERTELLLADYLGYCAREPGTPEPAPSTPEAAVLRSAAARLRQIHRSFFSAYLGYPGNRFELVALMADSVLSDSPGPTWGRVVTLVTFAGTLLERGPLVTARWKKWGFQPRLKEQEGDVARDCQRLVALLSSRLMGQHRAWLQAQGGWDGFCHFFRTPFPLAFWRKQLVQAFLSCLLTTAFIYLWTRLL

Cytochrome P450 2D6 = Cytochrome P450 2D6 (Homo sapiens, UniProt P10635); test: qHTS Assay for Inhibitors and Substrates of Cytochrome P450 2D6. [Related pubchem assays: 410 ]; assay type: ADME; conditions: read-out: Potency
Cytochrome P450 2D6, sequence (P10635 whole entry): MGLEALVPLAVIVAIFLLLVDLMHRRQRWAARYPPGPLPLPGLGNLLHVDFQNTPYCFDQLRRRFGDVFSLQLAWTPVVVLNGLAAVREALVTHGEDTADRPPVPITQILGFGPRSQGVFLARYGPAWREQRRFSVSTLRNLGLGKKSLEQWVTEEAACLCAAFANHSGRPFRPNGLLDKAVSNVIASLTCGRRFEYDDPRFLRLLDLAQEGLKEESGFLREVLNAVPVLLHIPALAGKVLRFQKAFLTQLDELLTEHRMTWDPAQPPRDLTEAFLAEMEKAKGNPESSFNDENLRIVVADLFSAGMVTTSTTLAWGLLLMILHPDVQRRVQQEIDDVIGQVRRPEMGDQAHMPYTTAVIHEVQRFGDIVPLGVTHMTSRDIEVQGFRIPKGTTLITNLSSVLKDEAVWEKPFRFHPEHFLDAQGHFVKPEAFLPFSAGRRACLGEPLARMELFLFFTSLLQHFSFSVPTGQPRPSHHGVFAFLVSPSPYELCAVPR

[3] = Trypanosoma cruzi growth suppression in host cells – NIH3T3 host cells, beta-gal luminescence, confirmation (AID 2044); assay type: functional, cell-based;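 further: intracellular parasites grown in NIH/3T3 mouse fibroblasts as host cells; luminescent beta-galactosidase reporter signal from transgenic T. cruzi replicating inside host cells; inhibitors lower the luminescence signal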
[4] = biological target: Peroxisome proliferator-activated receptor gamma/Nuclear receptor coactivator 3 (Homo sapiens, UniProt P37231); assay type: functional;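 further: agonist potency for raising coactivator recruitment to the receptor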
[5] = biological target: 72 kDa type IV collagenase (Homo sapiens, UniProt P08253); test: Dose Response validation of uHTS RPN11 inhibitor hits using a MMP-2 Fluorescence assay.; assay type: functional
72 kDa type IV collagenase, sequence (P08253 whole entry): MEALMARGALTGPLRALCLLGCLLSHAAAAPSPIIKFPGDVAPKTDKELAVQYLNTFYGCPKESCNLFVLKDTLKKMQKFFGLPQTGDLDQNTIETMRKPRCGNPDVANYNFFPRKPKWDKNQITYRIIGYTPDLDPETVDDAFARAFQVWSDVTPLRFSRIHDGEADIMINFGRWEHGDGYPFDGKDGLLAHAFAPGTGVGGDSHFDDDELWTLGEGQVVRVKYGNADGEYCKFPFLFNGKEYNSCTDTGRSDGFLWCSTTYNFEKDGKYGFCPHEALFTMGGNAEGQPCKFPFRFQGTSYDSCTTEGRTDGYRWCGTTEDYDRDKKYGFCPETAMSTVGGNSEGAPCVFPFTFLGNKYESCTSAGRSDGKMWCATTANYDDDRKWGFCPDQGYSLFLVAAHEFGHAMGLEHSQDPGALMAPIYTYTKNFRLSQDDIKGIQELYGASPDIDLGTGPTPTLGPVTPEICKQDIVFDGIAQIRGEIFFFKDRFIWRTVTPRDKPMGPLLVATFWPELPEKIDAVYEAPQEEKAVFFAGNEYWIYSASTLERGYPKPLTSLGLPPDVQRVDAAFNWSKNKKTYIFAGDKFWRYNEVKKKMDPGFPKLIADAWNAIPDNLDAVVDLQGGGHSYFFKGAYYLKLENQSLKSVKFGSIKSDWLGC

[6] = biological target: Peroxisome proliferator-activated receptor gamma/Nuclear receptor coactivator 2 (Homo sapiens, UniProt P37231); assay type: functional;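 further: agonist potency for raising coactivator recruitment to the receptor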
[7] = biological target: Protein-tyrosine kinase 2-beta (Homo sapiens, UniProt Q14289);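 further: potency of inhibitors of PYK2 kinase phosphorylation of poly-GT substrate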
Protein-tyrosine kinase 2-beta, sequence (Q14289 whole entry): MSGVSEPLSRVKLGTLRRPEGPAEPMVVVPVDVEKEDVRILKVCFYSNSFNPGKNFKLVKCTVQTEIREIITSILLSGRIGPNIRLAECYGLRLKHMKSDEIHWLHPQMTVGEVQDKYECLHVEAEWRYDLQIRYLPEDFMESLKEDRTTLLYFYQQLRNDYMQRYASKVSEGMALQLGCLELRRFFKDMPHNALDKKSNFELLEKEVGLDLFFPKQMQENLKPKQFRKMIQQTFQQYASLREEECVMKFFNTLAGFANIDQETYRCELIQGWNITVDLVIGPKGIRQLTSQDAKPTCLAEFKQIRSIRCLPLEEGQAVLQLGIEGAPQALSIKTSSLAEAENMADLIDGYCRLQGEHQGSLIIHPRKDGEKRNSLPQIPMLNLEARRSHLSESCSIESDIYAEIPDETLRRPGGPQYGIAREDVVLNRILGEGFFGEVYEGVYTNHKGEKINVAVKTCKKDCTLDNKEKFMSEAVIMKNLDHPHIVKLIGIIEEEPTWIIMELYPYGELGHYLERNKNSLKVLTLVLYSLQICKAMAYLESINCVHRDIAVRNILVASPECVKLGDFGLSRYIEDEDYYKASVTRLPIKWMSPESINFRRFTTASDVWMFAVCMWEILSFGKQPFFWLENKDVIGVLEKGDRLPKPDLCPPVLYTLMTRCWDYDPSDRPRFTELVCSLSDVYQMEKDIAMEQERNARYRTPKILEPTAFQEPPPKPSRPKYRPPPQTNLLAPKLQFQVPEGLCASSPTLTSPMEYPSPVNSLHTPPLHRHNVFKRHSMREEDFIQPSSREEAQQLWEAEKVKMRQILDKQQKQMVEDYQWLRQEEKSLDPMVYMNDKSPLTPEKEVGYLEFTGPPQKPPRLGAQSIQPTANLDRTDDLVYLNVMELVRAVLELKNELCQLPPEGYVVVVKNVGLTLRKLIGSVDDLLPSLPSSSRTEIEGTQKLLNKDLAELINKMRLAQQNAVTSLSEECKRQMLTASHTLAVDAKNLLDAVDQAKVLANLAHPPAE

[8] = Luminescence Cell-Based Dose Response HTS to Identify Inhibitors of 5'UTR Stem-Loop Driven Prion Protein mRNA Translation in H4 Neuroglioblastoma Cells. [Related pubchem assays: 1827 (Project Summary), 1813 (Primary HTS)]; assay type: functional
Mu-type opioid receptor = Mu-type opioid receptor (Homo sapiens, UniProt P35372); test: (§1) Counterscreen for agonists of heterodimerization of the mu 1 (OPRM1) and delta 1 (OPRD1) opioid receptors: Luminescence-based cell-based high throughput dose response assay to identify agonists of OPRM1 homodimerization.; assay type: functional
Mu-type opioid receptor, sequence (P35372 whole entry): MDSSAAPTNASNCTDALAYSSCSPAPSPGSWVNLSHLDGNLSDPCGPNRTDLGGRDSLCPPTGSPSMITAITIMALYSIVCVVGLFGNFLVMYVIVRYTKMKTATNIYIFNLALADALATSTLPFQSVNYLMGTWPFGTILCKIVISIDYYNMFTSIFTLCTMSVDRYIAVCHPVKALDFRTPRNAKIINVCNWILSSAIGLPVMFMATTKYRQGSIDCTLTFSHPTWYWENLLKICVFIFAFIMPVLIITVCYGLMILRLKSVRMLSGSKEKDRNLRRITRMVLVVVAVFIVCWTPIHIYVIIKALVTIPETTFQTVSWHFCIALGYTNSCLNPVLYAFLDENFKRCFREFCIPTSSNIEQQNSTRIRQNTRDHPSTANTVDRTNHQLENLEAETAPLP

[9] = biological target: 5-hydroxytryptamine receptor 5A (Homo sapiens, UniProt P47898); test: Counterscreen for agonists of OPRM1-OPRD1 heterodimerization: luminescence-based cell-based high throughput dose response assay to identify agonists of 5-hydroxytryptamine (serotonin) 5A receptor (HTR5A). [Related pubchem assays (depositor defined):AID504326, AID504355, AID504692, AID504904, AID504905]; assay type: functional
5-hydroxytryptamine receptor 5A, sequence (P47898 whole entry): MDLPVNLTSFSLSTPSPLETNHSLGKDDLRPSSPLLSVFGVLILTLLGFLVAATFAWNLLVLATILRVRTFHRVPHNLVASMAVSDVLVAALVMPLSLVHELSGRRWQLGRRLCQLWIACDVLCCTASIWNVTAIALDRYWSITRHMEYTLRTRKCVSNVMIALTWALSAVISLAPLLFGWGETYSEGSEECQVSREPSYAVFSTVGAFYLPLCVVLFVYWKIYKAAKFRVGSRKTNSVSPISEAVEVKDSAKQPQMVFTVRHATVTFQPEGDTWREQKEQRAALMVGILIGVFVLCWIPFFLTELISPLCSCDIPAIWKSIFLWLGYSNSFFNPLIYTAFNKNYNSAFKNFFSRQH

Prothrombin = Prothrombin (Bos taurus, UniProt P00735); test: thrombin protease inhibitors – biochemical, fluorescence polarization, uHTS hits, dose response (AID 602369); assay type: functional
[10] = biological target: Peroxisome proliferator-activated receptor gamma/Nuclear receptor coactivator 1 (Homo sapiens, UniProt P37231); assay type: functional;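 further: agonist potency as compounds enhance coactivator SRC-1 recruitment to PPARgamma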
[11] = NIH3T3 cell viability loss – ATP luminescence, mouse fibroblasts, counter-screen, dose response (AID 2010); assay type: functional, cell-based;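 further: cells exposed to compound for about 90 hours before reading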
[12] = biological target: Delta-type opioid receptor (Homo sapiens, UniProt P41143); test: as §1, with “of OPRD1” for “of OPRM1”, “homodimerization. [Related pubchem assays (depositor defined):AID504326, AID504355, AID504692, AID504904, AID504905]” for “homodimerization.”; assay type: functional
Delta-type opioid receptor, sequence (P41143 whole entry): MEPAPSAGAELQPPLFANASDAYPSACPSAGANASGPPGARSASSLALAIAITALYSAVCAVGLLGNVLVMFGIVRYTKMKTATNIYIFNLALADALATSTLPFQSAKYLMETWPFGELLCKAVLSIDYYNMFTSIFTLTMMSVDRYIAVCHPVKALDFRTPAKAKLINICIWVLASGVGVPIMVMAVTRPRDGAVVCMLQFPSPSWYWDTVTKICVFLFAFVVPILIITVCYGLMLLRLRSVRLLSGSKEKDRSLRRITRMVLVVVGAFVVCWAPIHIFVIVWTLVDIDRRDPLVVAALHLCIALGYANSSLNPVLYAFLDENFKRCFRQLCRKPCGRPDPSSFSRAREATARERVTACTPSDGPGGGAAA

[13] = biological target: 26S proteasome non-ATPase regulatory subunit 14 (Homo sapiens, UniProt O00487); test: inhibition of proteasome subunit RPN11 – biochemical, fluorescence polarization, uHTS hits, confirmation (AID 602368); assay type: functional
26S proteasome non-ATPase regulatory subunit 14, sequence (O00487 whole entry, the tested form may be a part): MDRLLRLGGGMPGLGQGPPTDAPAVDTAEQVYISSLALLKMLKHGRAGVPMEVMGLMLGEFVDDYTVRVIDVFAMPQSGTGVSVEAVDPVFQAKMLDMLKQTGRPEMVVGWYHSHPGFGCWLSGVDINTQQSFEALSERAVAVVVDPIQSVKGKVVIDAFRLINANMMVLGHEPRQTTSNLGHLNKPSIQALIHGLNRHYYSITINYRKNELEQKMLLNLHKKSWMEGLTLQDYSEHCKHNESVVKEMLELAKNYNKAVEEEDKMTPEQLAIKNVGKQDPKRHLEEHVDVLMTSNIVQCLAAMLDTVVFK

[14] = CCR5-tropic HIV-1 fusion blockers – cell-based, CCR5-tropic Env, dose response (AID 2279); assay type: functional
[15] = biological target: Heat shock protein HSP 90-alpha (Homo sapiens, UniProt P07900); test: Luminescence-based dose response biochemical high throughput screening assay for inhibitors of the Heat Shock Protein 90 (HSP90). [Related pubchem assays: 1831 (Summary AID.), 1846 (Confirmation screen.), 1789 (Primary screen.)]

T1 sequence (P0DMV8 whole entry): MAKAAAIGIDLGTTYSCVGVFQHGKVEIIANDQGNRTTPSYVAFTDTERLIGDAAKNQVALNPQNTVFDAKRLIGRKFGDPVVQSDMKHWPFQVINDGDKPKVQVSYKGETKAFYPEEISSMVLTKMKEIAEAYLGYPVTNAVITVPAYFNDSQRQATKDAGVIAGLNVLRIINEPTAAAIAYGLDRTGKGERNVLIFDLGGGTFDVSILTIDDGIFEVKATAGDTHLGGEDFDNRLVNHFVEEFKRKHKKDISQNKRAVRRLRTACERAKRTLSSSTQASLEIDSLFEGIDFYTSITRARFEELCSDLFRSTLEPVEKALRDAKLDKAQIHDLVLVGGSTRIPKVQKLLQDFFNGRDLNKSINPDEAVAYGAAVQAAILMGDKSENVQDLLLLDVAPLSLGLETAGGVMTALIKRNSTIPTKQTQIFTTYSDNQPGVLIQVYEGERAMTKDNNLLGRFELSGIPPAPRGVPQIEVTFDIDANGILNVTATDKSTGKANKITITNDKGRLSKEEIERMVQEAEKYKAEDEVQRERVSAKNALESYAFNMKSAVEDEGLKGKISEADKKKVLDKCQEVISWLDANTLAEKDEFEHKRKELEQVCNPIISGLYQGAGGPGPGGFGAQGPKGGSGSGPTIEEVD

For `NC(=O)COc1ccc(C2c3c(oc4ccccc4c3=O)C(=O)N2CC2CCCO2)cc1` (stereo unspecified), the IC50 [1] was 16 µM (active), the IC50 (Estrogen receptor beta) was > 50 µM (not active) and the IC50 [2] was 55.1 µM (active). The IC50 (Estrogen receptor) was > 50 µM (not active).

In the case of `O=S(=O)(O)c1cccc2cccc(Nc3ccccc3)c12`, the EC50 (Bcl-2-like protein 10) is reported as 2.95 µM (active).

With `CC1(O)C(=O)C=C2C=C3CCCN3C=C2C1=O` (stereo unspecified) the AC50 (Cytochrome P450 2D6) was 7.94 µM (inconclusive).

In the case of `O=C(COc1ccc(/C=N/NC(=O)c2cc3ccccc3o2)cc1Br)Nc1ccccc1`, the EC50 [3] is reported as 1.97 µM (active), the EC50 [4] is reported as > 79.4 µM (not active) and the IC50 [5] is reported as > 100 µM (inactive). For the same molecule, the EC50 [6] was > 79.4 µM (not active), the IC50 [7] was > 2.57 µM (not active) and the EC50 [8] was 9.11 µM (inconclusive). The EC50 (Mu-type opioid receptor) was > 92.5 µM (inactive), the EC50 [9] was > 92.5 µM (inactive) and the IC50 (Prothrombin) was 76.3 µM (active). For the same molecule, the EC50 [10] was > 79.4 µM (not active), the EC50 [11] was > 60 µM (not active) and the EC50 [12] was > 92.5 µM (inactive). For the same molecule, the IC50 [13] was 12.4 µM (active).

In the case of `COc1cc(/C=N/Nc2ccc(Cl)c(C(=O)O)c2)ccc1OC(=O)c1ccc(F)cc1`, the IC50 [14] is reported as 4.76 µM (active) and the IC50 [15] is reported as 0.874 µM (active).
